Reference: patent US8435980B2 (AbbVie Inc., priority 2009, dated 2013)

Target: T1, Cdc7 (BEV coexpressed huCDC7/DBF4) (Homo sapiens, UniProt O00311)
T1 construct: made in house; host or cells: BEV (baculovirus expression vector) co-expression; insect cells are implied but no cell line is named
Test: Cdc7 enzyme inhibition assay ([33P]ATP, biotinylated peptide substrate, FlashPlate)
Assay type: biochemical
Conditions: Table 3; enzyme inhibition data (Ki)
Experimental: Cdc7 (BEV coexpressed huCDC7/DBF4) is prepared internally. Cdc7 assays are conducted as follows with final concentrations as listed. […] Reactions are quenched after 1 hr by the addition of 90 μL stop buffer (50 mM EDTA, 2M NaCl). […] (Ki) for exemplary compounds.

T1 sequence (O00311 whole entry): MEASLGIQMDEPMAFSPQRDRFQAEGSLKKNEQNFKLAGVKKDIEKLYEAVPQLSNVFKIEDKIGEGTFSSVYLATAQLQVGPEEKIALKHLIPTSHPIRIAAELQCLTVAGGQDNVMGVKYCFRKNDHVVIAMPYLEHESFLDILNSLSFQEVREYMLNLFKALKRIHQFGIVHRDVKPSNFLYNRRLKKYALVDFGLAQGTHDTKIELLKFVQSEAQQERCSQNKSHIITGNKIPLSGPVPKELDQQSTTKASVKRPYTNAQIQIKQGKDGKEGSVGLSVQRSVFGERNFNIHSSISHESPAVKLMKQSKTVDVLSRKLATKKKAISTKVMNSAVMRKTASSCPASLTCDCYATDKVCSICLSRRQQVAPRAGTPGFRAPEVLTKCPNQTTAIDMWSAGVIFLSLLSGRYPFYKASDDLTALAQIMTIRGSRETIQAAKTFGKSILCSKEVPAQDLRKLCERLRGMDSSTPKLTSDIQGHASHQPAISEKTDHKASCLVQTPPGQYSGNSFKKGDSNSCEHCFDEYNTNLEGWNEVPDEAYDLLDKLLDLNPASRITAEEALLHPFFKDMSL
T1 sequence (Q9UBU7 whole entry partner): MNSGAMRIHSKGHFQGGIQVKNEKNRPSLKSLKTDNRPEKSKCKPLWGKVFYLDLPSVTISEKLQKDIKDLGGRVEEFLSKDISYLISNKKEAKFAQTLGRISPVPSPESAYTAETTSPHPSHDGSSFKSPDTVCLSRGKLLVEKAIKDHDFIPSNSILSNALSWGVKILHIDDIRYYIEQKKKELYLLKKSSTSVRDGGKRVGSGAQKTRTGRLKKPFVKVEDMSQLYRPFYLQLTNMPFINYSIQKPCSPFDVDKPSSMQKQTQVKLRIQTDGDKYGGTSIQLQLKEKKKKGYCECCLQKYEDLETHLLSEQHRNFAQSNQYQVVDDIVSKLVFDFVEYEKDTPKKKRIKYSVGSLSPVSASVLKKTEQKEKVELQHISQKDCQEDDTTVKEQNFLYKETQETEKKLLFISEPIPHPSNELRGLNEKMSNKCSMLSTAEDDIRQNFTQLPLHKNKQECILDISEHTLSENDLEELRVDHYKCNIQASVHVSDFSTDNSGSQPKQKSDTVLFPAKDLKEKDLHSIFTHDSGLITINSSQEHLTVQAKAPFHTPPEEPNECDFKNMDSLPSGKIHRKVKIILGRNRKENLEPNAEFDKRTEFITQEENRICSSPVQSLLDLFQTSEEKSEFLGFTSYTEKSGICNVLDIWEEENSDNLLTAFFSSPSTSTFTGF

Row | Compound | Ki
1 | NCCNc1nc(Cl)cc(-c2c[nH]c3ncccc23)n1 [Example 466, N-[4-chloro-6-(1H-pyrrolo[2,3-b]pyridin-3-yl)pyrimidin-2-yl]ethane-1,2-diamine] | < 10 nM
2 | OCCNc1nc(Cl)cc(-c2c[nH]c3ncccc23)n1 [Example 467, 2-{[4-chloro-6-(1H-pyrrolo[2,3-b]pyridin-3-yl)pyrimidin-2-yl]amino}ethanol] | < 10 nM
3 | NCCOCCOCCNc1nc(Cl)cc(-c2c[nH]c3ncccc23)n1 [Example 468, N-{2-[2-(2-aminoethoxy)ethoxy]ethyl}-4-chloro-6-(1H-pyrrolo[2,3-b]pyridin-3-yl)pyrimidin-2-amine] | < 10 nM
4 | OCCOCCNc1nc(Cl)cc(-c2c[nH]c3ncccc23)n1 [Example 474, 2-(2-{[4-chloro-6-(1H-pyrrolo[2,3-b]pyridin-3-yl)pyrimidin-2-yl]amino}ethoxy)ethanol] | < 10 nM
5 | NCCOCCNc1nc(Cl)cc(-c2c[nH]c3ncccc23)n1 [Example 475, N-[2-(2-aminoethoxy)ethyl]-4-chloro-6-(1H-pyrrolo[2,3-b]pyridin-3-yl)pyrimidin-2-amine] | < 10 nM
6 | CC(=O)N[C@H]1CC[C@H](Oc2nc(Cl)cc(-c3c[nH]c4ncccc34)n2)CC1 [Example 480, N-(trans-4-{[4-chloro-6-(1H-pyrrolo[2,3-b]pyridin-3-yl)pyrimidin-2-yl]oxy}cyclohexyl)acetamide] | 10 to 100 nM
7 | N-(3-{[6-chloro-4-(1H-pyrrolo[2,3-b]pyridin-3-yl)pyridin-2-yl]amino}cyclohexyl)-2-(dimethylamino)ethanesulfonamide [Example 154] | < 10 nM
8 | N-{2-[(3-{[6-chloro-4-(1H-pyrrolo[2,3-b]pyridin-3-yl)pyridin-2-yl]amino}cyclohexyl)sulfamoyl]ethyl}benzamide [Example 169] | < 10 nM
9 | {4-[(4-{[6-chloro-4-(1H-pyrrolo[2,3-b]pyridin-3-yl)pyridin-2-yl]amino}cyclohexyl)amino]piperidin-1-yl}(phenyl)methanone [Example 177] | < 10 nM

Further lines, results first:

Row | Ki | Compound
10 | < 10 nM | O=C(NC1CCCC1)N[C@H]1CC[C@H](Nc2nc(Cl)cc(-c3c[nH]c4ncccc34)n2)CC1 [Example 470, 1-(trans-4-{[4-chloro-6-(1H-pyrrolo[2,3-b]pyridin-3-yl)pyrimidin-2-yl]amino}cyclohexyl)-3-cyclopentylurea]
11 | < 10 nM | CN(C)c1ccc(NC(=O)N[C@H]2CC[C@H](Nc3nc(Cl)cc(-c4c[nH]c5ncccc45)n3)CC2)cc1 [Example 471, 1-(trans-4-{[4-chloro-6-(1H-pyrrolo[2,3-b]pyridin-3-yl)pyrimidin-2-yl]amino}cyclohexyl)-3-[4-(dimethylamino)phenyl]urea]
12 | < 10 nM | O=C(CN1C(=O)c2ccccc2C1=O)N[C@H]1CC[C@H](Nc2nc(Cl)cc(-c3c[nH]c4ncccc34)n2)CC1 [Example 472, N-(trans-4-{[4-chloro-6-(1H-pyrrolo[2,3-b]pyridin-3-yl)pyrimidin-2-yl]amino}cyclohexyl)-2-(1,3-dioxo-1,3-dihydro-2H-isoindol-2-yl)acetamide]
13 | < 10 nM | O=C1NCCN1C(=O)N[C@H]1CC[C@H](Nc2nc(Cl)cc(-c3c[nH]c4ncccc34)n2)CC1 [Example 473, N-(trans-4-{[4-chloro-6-(1H-pyrrolo[2,3-b]pyridin-3-yl)pyrimidin-2-yl]amino}cyclohexyl)-2-oxoimidazolidine-1-carboxamide]
14 | < 10 nM | Clc1cc(-c2c[nH]c3ncccc23)nc(N[C@H]2CC[C@H](NC3CCCC3)CC2)n1 [Example 477, trans-N-[4-chloro-6-(1H-pyrrolo[2,3-b]pyridin-3-yl)pyrimidin-2-yl]-N′-cyclopentylcyclohexane-1,4-diamine]
15 | < 10 nM | O=C(CNC1CCCC1)N[C@H]1CC[C@H](Nc2nc(Cl)cc(-c3c[nH]c4ncccc34)n2)CC1 [Example 478, N-(trans-4-{[4-chloro-6-(1H-pyrrolo[2,3-b]pyridin-3-yl)pyrimidin-2-yl]amino}cyclohexyl)-N~2~-cyclopentylglycinamide]
16 | < 10 nM | CCCS(=O)(=O)N[C@H]1CC[C@H](Nc2nc(Cl)cc(-c3c[nH]c4ncccc34)n2)CC1 [Example 479, N-(trans-4-{[4-chloro-6-(1H-pyrrolo[2,3-b]pyridin-3-yl)pyrimidin-2-yl]amino}cyclohexyl)propane-1-sulfonamide]
17 | < 10 nM | O=S(=O)(N[C@H]1CC[C@H](Nc2nc(Cl)cc(-c3c[nH]c4ncccc34)n2)CC1)c1ccsc1 [Example 481, N-(trans-4-{[4-chloro-6-(1H-pyrrolo[2,3-b]pyridin-3-yl)pyrimidin-2-yl]amino}cyclohexyl)thiophene-3-sulfonamide]
18 | < 10 nM | O=S(=O)(N[C@H]1CC[C@H](Nc2nc(Cl)cc(-c3c[nH]c4ncccc34)n2)CC1)c1cccs1 [Example 482, N-(trans-4-{[4-chloro-6-(1H-pyrrolo[2,3-b]pyridin-3-yl)pyrimidin-2-yl]amino}cyclohexyl)thiophene-2-sulfonamide]
